The experiment has as its target Delta-type opioid receptor (Cavia porcellus). Briefly: Inhibition of binding [3H]cyclo[D-Pen2,p-Cl,-Phe4,D-Pen5] enkephalin to Opioid receptor delta 1 of guinea pig brain membrane (GPB) homogenates.

Molecules are shown by their SMILES. Where only a bound is given, the exact number is not on record here.

`CC[C@H](C)[C@H](NC(=O)[C@H](CCCN=C(N)N)NC(=O)[C@H](CCCN=C(N)N)NC(=O)[C@H](CC(C)C)NC(=O)[C@H](Cc1ccccc1)NC(=O)[C@H](Cc1ccc(O)cc1)NC(=O)CNC(=O)[C@@H](N)Cc1ccc(O)cc1)C(=O)N[C@@H](CCCN=C(N)N)C(=O)N1CCC[C@H]1C(=O)N[C@@H](CCCCN)C(N)=O`: the IC50 was above 10 µM.
